These results are taken from PMC11061835, “Elucidating the Mechanism of Metabolism of Cannabichromene by Human Cytochrome P450s” (Journal of Natural Products, 2024).

Molecules are shown by their SMILES. Several values for one entry are separate records, joined by “and”; a condition that tells them apart may be missing. Equal values may be shown once.

One series addresses T1, CYP2C8 with CPR (Homo sapiens, UniProt P10632).
T1 construct: His-tag; made in house; host or cells: E. coli DH-5α with pTGro7 plasmid (CYP)
T1 sequence (P10632 1-490): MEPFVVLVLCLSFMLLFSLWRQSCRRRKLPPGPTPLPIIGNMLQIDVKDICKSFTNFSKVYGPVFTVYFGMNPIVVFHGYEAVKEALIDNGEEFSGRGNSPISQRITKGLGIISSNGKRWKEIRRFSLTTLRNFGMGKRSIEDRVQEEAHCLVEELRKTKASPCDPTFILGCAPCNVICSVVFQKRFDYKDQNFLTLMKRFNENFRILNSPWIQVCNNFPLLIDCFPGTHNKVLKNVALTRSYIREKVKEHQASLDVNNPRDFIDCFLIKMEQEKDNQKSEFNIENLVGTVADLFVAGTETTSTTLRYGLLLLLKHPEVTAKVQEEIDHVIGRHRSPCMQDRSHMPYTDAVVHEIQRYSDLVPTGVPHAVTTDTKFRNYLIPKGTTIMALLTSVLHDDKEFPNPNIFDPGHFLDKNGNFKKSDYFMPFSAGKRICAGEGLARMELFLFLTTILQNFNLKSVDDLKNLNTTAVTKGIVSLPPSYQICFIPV
T1 sequence (P16435 1-677 partner): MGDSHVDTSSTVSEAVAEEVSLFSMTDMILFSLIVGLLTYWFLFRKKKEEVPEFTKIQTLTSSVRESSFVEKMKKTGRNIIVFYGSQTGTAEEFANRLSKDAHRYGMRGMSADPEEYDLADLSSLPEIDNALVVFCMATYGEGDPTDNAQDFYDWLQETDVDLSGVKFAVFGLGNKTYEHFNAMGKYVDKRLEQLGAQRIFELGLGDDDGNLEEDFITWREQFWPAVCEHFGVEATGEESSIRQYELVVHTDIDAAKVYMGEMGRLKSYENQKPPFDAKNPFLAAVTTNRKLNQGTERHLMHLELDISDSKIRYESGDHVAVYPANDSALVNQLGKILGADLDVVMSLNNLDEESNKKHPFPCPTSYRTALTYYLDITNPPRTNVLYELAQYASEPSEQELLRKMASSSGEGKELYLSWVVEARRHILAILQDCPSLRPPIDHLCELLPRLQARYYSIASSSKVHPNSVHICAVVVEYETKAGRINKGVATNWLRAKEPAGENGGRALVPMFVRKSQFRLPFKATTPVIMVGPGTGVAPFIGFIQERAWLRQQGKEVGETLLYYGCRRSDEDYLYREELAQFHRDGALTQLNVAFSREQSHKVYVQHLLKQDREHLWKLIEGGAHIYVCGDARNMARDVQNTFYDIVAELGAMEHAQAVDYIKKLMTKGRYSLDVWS
The experiment in a line: NADPH activity assay, CYP2C8 with CPR. Format: biochemical. Conditions: CYP2C8, CBC 50 μM vs substrate-free. On the procedure: (§1) CYP-mediated NADPH oxidation was measured using kinetics mode in a Cary 300 UV–vis spectrometer (Agilent Technologies). 0.2 μM (final concentration) of CYP was taken in 0.1 M potassium phosphate buffer (pH 7.4) and incubated with 0.6 μM (final concentration) of CPR for 5 min with a reaction volume of 400 μL. The reaction was initiated with 200 μM of NADPH, and the absorption change was monitored over 10 min at 340 nm. The rate of NADPH consumption (or NADPH to NADP^+ conversion) was calculated by taking the molar extinction coefficient as 6.22 mM^–1 cm^–1 at 340 nm. To estimate the change in NADPH oxidation in the presence of CBC, both CYP and CPR were further incubated using CBC (final concentration 50 μM) for 5 min followed by measuring the change in absorbance at 340 nm as discussed earlier.

Another series has as its target T2, CYP2J2 with CPR (Homo sapiens, UniProt P51589).
T2 construct: His-tag; made in house; host or cells: E. coli DH-5α with pTGro7 plasmid (CYP)
T2 sequence (P51589 1-502): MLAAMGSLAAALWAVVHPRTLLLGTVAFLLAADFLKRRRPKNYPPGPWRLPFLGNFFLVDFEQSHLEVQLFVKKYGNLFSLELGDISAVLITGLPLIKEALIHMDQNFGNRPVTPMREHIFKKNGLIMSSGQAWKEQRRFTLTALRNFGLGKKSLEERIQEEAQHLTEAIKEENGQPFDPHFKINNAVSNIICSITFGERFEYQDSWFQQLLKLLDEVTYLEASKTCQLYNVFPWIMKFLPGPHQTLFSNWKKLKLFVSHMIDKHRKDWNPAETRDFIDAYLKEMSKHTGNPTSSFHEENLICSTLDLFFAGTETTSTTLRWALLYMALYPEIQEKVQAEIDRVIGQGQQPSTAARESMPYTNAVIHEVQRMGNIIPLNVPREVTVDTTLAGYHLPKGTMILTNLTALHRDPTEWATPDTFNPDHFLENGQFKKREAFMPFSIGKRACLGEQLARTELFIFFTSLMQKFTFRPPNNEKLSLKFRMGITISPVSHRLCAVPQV
T2 sequence (P16435 1-677 partner): T1 sequence (P16435 1-677 partner)
The experiment in a line: NADPH activity assay, CYP2J2 with CPR. Format: biochemical. The protocol:
as §1

The target of series [1] is T3, CYP3A4 in the presence of CPR (Homo sapiens, UniProt P08684).
T3 construct: His-tag; made in house; host or cells: E. coli DH-5α with pTGro7 plasmid (CYP)
T3 sequence (P08684 whole entry, one chain of several): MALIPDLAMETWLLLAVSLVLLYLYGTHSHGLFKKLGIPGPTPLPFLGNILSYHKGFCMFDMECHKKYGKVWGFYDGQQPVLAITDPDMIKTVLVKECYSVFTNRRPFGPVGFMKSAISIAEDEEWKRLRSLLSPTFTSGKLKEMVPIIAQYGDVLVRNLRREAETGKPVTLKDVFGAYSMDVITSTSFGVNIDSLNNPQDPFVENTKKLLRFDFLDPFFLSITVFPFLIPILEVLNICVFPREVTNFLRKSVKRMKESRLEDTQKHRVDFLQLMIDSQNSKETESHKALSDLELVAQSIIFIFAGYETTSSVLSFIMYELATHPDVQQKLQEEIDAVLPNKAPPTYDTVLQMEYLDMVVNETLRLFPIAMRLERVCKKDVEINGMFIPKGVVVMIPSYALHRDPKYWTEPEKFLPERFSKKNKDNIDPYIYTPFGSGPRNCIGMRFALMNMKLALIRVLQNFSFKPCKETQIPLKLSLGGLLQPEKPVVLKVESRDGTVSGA
In words: Spectroscopic titration, CYP3A4–CPR complex. Format: binding. The protocol: (§2) For CBC titration to CYP–CPR complex, initially CYPs were dissolved in 400 μL of 0.1 M phosphate buffer (pH = 7.4) keeping the concentration between […]. Following this 50 μL of CPR (50 μM stock) was added to both cuvettes, and the final concentration of both of the proteins was 5–6 μM. Both proteins were initially mixed and incubated for 5 min followed by titration with CBC in the same process as mentioned above. The substrate-bound spectra were then subtracted from substrate-free spectra, and the extent of binding was analyzed using Origin Pro 2020.

The target in series [2] is T4, CYP2J2 in the presence of CPR (Homo sapiens, UniProt P51589).
T4 construct: His-tag; made in house; host or cells: E. coli DH-5α with pTGro7 plasmid (CYP)
T4 sequence (P51589 1-502): T2 sequence (P51589 1-502)
T4 sequence (P16435 1-677 partner): T1 sequence (P16435 1-677 partner)
In words: Spectroscopic titration, CYP2J2–CPR complex. Format: binding. On the procedure: as §2

A further series relates to TRPV2. The arrangement: method as in PMID 30697147. Conditions: read-out: agonism toward TRPV2; cited from earlier work.

`CCCCCc1cc(O)c2c(c1)OC(C)(CCC=C(C)C)C=C2` (centres unmarked) [CBC, Cannabichromene]: the “percentage increase of NADPH consumption in the presence of CBC” value on CYP2C8 with CPR is listed as roughly 60%; on CYP2J2 with CPR (CYP2J2, CBC 50 μM vs substrate-free), roughly 60%. In addition, the “NADPH rate (CYP+CPR+CBC)” value on CYP2J2 with CPR (CYP2J2, CBC 50 μM) was 21.7 nmol/min/nmol and ~20 nmol/min/nmol. Also, the “ΔAmax (spin state change due to heme perturbation)” value in series [1] was 0.03 ± 0.00 and 0.03–0.04; in series [2], 0.09 ± 0.00 and ~0.1. For the same compound, the Kd in series [1] (read-out: Kd(app)) was 1660 nM and ~1600 nM and < 10000 nM; in series [2] (read-out: Kd(app)), 1190 nM and < 10000 nM and ~1000 nM. The EC50 with TRPV2 is less than 10000 nM.
